Experiments:
[1] = tested on: Rats; experiment: Vogel test; assay type: in vivo; conditions: i.c.v., g-CD
From the text: The Vogel test is based on the development of a conflict between a highly motivated behavior and an aversion. For this test, the strong motivation is thirst. The animal is water deprived for 12-16 hrs to produce the motivation to drink. During the training period the animals are exposed to the testing environment so they become accustomed to the drinking spout and minimize the fear of a novel environment. Following training, the animals are allowed access to water for 2 hrs. During this time, the animals will drink and eat their normal amount of water and food, compensating for the deprivation time. However, this schedule still produces a strong motivation to drink during the testing period.
Having been deprived of water for twelve to sixteen hours, an animal is placed in a test cage where it is allowed to drink freely for five minutes. This period is used to habituate the animal to the environment and the drinking spout. Following the training period, animals have access to water and food in their home cage for 2 hrs. Food is available at all times. Twenty-four hours later, drug is administered to the animal intracecebroventricularly.
After an indicated delay started from the time of injection the animal is again placed in the test cage for ten minutes. A computer counts each time the animal licks, and after every twentieth lick administers a mild electric stimulus across the tongue and/or feet. The electrical stimulus consists of a 0.6 mA current with a duration of 100 msec. This procedure produces a state of conflict for the animal that is reduced by the administration of clinically used anxiolytic agents (i.e., Valium). For dose-response curves, separate groups of animals are injected with increasing doses of test drug and are tested at a predetermined time.
Table 10. Anxiolytic Activity in Vogel Test in Rats

[2] = tested on: Bovine Uteral Progesterone Receptors; experiment: Inhibition of 3H-progesterone binding, uterus cytosol; conditions: competitor 10^-6M; 3H-progesterone 0.15 nM
Protocol: The data presented were obtained by performing assays in accordance with the procedures described in et al. 1988 previously to determine the effect of progesterone metabolites and their derivatives and the progestin R5020 on the binding of [^3H]R5020 to the progesterone receptor in rat uterus (Gee et al. 1988).
^3H-progesterone (0.15 nM) was incubated with the rat uterus cytosol in the presence of the test compounds. The specific binding were determined after incubation and compared to the control incubation without the compounds. The data are expressed as percent inhibition of binding.
In Table 3, rats were adrenalectomized 3 days prior to sacrifice. To isolate the mineralocorticoid receptor, brain cytosol fractions were prepared as describe in Gee, et al. 1988. The drugs were incubated with 3 nM of ^3H-aldosterone (the specific ligand for the mineralocorticoid receptor) in the presence of the selective type II agonist RU28362 (0.5 µM) which blocks ^3H-aldosterone binding to the type II (glucocorticoid) receptors. Table 2. Inhibition of 3H-Progesterone Binding to the Bovine Uteral Progesterone Receptors

[3] = target: T1, Hippocampal Mineralocorticoid Receptors (Rattus norvegicus, UniProt P22199); experiment: Inhibition of 3H-aldosterone binding, brain cytosol; parameters: species or system rats; conditions: competitor 10^-6M; 3 nM 3H-aldosterone, RU28362 0.5 µM
T1 construct: To isolate the mineralocorticoid receptor, brain cytosol fractions were prepared; from tissue; host or cells: rat brain (hippocampal) cytosol
T1 sequence (P22199 1-981): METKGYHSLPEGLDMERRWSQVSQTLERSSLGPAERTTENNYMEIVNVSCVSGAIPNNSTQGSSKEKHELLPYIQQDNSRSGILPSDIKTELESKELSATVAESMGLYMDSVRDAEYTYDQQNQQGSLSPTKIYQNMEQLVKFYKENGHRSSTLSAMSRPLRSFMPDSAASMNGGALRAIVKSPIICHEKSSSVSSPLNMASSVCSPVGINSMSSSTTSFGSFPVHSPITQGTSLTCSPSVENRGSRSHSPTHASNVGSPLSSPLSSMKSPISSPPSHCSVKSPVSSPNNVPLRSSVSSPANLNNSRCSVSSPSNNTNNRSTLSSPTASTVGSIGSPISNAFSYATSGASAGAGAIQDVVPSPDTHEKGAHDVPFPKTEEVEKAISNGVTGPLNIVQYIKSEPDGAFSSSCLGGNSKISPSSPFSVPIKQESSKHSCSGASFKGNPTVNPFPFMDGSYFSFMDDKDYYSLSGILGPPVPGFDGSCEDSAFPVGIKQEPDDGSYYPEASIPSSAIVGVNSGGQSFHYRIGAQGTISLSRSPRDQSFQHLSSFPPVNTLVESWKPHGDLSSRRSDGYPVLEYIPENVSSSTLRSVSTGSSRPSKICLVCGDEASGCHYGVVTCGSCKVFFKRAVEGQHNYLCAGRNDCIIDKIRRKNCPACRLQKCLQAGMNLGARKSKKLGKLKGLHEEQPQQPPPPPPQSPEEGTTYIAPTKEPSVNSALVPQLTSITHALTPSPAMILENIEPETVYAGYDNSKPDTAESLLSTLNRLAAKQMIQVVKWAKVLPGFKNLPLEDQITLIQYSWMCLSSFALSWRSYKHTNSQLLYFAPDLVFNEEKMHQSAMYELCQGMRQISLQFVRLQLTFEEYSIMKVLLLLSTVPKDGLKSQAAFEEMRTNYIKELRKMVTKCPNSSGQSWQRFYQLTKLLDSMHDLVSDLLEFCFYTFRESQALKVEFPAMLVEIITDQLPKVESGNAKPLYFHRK
Protocol: Various hormonal activities of representative neuroactive steroids were further studied through testing their potential estrogenic, mineralocorticoid and glucocorticoid activities. These activities were analyzed by monitoring the ability of the compounds to inhibit binding of the steroid hormones to their respective hormone receptors.
In Table 3, rats were adrenalectomized 3 days prior to sacrifice. […] Table 2. Inhibition of 3H-Progesterone Binding to the Bovine Uteral Progesterone Receptors
Table 3. Inhibition of 3H-Aldosterone Binding to Hippocampal Mineralocorticoid Receptors

[4] = tested on: N.I.H. Swiss-Webster mice; experiment: Elevated plus-maze; assay type: in vivo; conditions: Mus musculus, ip, read-out: % Control
From the text: The theoretical basis for the elevated plus-maze test is similar to that of the light/dark transition test. […] The apparatus consists of two open-arms and two enclosed-arms. The elevated plus-maze test allows for two measures of anxiety, the number of entries into the open-arms and the time spent on the open-arms, both expressed as a percentage of the total number of entries and time spent in/on both the open-arms and enclosed-arms.
Male N.LH. Swiss-Webster mice (Harlan, Indianapolis, IN) weighing 15-20 g were housed four per cage in polyethylene cages with sawdust bedding. The colony mom was environmentally controlled (22°C) with a 12^- hr light/dark cycle (0600-1800 hr). Food and water were available ad libitum, except during testing. The experiments were run from 0700-1500 hr and groups were counterbalance for time of day effects. Mice were only administered drug or vehicle once.
The apparatus included two open arms perpendicular to two enclosed arms elevated 50 cm from the floor. Each arm was 50 cm long and the walls of the enclosed arms were 40 cm tall. The maze was made completely of black plexiglass. Incandescent 200 W light bulbs were above each of the open arms to produce a strong contrast between the open arms and the enclosed arms.
Ten minutes after an injection, the N.I.H. Swiss-Webster mice were placed in the center of the plus-maze facing an open arm. During the 5 min test period, the number of entries onto the open arms and the enclosed arms, and the time spent in the open arms and enclosed arms were measured. All four paws had to be within an arm for the dependent variable to be measured. Therefore, the time spent in the center of the maze is not counted, so the total time spent in the open arms and the enclosed arms may not equal 5 min.

[5] = target: GR complex; experiment: [35S]TBPS binding assay (inhibition of [35S]TBPS binding, cerebral cortex P2 homogenate); parameters: species or system rat; conditions: for IC50: 2 nM [35S]TBPS, rat cerebral cortex P2 homogenate; for IMAX: maximum inhibition of [35S]TBPS binding
Summary of the method: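 Rat (male Sprague-Dawley) cortical P2 homogenate (0.5 mg protein) in 50 mM Na/K phosphate pH 7.4, 200 mM NaCl, incubated with 2 nM [35S]TBPS plus steroid test compounds (DMSO) in presence of GABA plus (+)bicuculline, 25°C, 90 min. Filtration, scintillation counting; nonspecific binding defined with […].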

[6] = tested on: metrazol induced convulsions; experiment: animal or person; assay type: in vivo, mice; conditions: Mus musculus, 10 min; IP, 10 mg/kg, 10 minutes prior to metrazol (85 mg/kg); read-out: % Protected
Protocol: Experiments were also performed to determine the physiological relevance of neuroactive steroid and GABA receptor interactions by assessing the ability of the compounds of and used in the invention to prevent metrazol induced convulsions in mice. Mice were injected with various doses of the test compounds of the invention, 10 minutes prior to the injection of metrazol. The time to onset of myoclomis (presence of forelimb clonic activity) induced by metrazol was determined by observing each mouse for a period of 30 minutes. […] Table 6: Antimetrazol Activity of Neuroactive Steroids in Mice
The anticonvulsant tests are similar to that described above. […] The number of animals with tonic and/or clonic convulsions was recorded. In the maximal electroshock test, 50 mA of current at 60 Hz was delivered through corneal electrodes for 200 msec to induce tonic seizure. The ability of compounds to abolish the tonic component was defined as the endpoint. General CNS depression potential was determined by a rotorod test 10 minutes after the injection of compounds where the number of mice staying on a rotating (6 rpm) rod for 1 minute in one of the three trials was determined. […] Table 7. Anticonvulsant Activity of Exemplified Neuroactive Steroids and those of Selected Clinically Useful Anticonvulsants in Mice

| Structure (SMILES) | response vs control in vivo at 10 mg/kg [4] [%] | IC50 [5] [nM] | IMAX [5] [%] | responders at 10 mg/kg [6] [%] | also measured |
| --- | --- | --- | --- | --- | --- |
| CC(C)OC1CC2(C)C(CCC3C2CCC2(C)C(C(C)O)CCC32)CC1O (stereo not drawn) [3α,20α-Dihydroxy-2β-isopropoxy-5α-pregnane] |  |  |  |  | Vogel (%of control) ([1]; 10 µg/kg): 169.0 %of control |
| CC[C@H](O)[C@H]1CC[C@H]2[C@@H]3CC[C@H]4C[C@H](O)CC[C@]4(C)[C@H]3CC[C@]12C [3α,20α-Dihydroxy-21-methyl-5α-pregnane] |  |  |  |  | Vogel (%of control) ([1]; 10 µg/kg): 157.9 %of control |
| CCC(=O)[C@@]1(C)CC[C@H]2[C@@H]3CCC4=CC(=O)CCC4=C3CC[C@@]21C [Example R5020, promegesterone] |  |  |  |  | % of Inhibition [2]: 100% |
| C[C@H](O)[C@H]1CC[C@H]2[C@@H]3CC[C@H]4C[C@H](O)CC[C@]4(C)[C@H]3CC[C@]12C [3α,20α(S)-Dihydroxy-5α-pregnane] |  |  |  |  | Vogel (%of control) ([1]; 10 µg/kg): 193.0 %of control |
| C[C@]12CCC(=O)C=C1CC[C@@H]1[C@@H]2[C@@H](O)C[C@]2(C=O)[C@@H](C(=O)CO)CC[C@@H]12 [Aldosterone] |  |  |  |  | inhibition at 1 µM [3]: 95.5% |
| CC(O)C1CCC2C3CCC4CC(O)C(F)CC4(C)C3CCC12C (stereo not drawn) [2β-Fluoro-3α,20α-dihydroxy-5α-pregnane] |  |  |  |  | Vogel (%of control) ([1]; 20 µg/kg): 264.9 %of control |
| C[C@@]1(O)CC[C@@]2(C)[C@@H](CC[C@@H]3[C@@H]2CC[C@]2(C)[C@@H](C(=O)Cn4ccnc4)CC[C@@H]32)C1 [3α-hydroxy-21-(1'-imidazolyl)-3β-methyl-5α-pregnan-20-one] | 144 | 97 | 95 | 75 |  |
| C#CCOCC#C[C@@]1(O)CC[C@@]2(C)[C@H](CC[C@@H]3[C@@H]2CC[C@]2(C)[C@@H](C(C)=O)CC[C@@H]32)C1 [3α-hydroxy-3β-[3-(2'-propynyloxy)-1-propynyl]-5β-pregnan-20-one] | 178 | 28 | 105 | 50 |  |
| CC(=O)[C@H]1CC[C@H]2[C@@H]3CC[C@@H]4C[C@@](O)(C#Cc5ccc(C#N)cc5)CC[C@]4(C)[C@H]3CC[C@]12C [3β-(4'-Cyanophenyl)ethynyl-3α-hydroxy-5β-pregnan-20-one] | 169 | 73 | 92 | 43.7 |  |
| C[C@]12CC[C@@H](O)C[C@H]1CC[C@@H]1[C@@H]2CC[C@]2(C)[C@@H](C(=O)Cn3cccn3)CC[C@@H]12 [3α-hydroxy-21-(pyrazol-1-yl)-5β-pregnan 20-one] | 129 | 121 | 67 | 62.5 |  |
| CC(=O)[C@H]1CC[C@H]2[C@@H]3CC[C@@H]4C[C@@](O)(C#Cc5ccc(-c6ccccc6)cc5)CC[C@]4(C)[C@H]3CC[C@]12C [3β-(4'-biphenylethynyl)-3α-hydroxy-5β-pregnan-20-one] | 111 | 43 | 83 | 0 |  |
| CCC[C@H](O)[C@H]1CC[C@H]2[C@@H]3CC[C@H]4C[C@H](O)CC[C@]4(C)[C@H]3CC[C@]12C [3α,20α-Dihydroxy-21-ethyl-5α-pregnane] |  |  |  |  | Vogel (%of control) ([1]; 20 µg/kg): 225.8 %of control |
| CC(=O)[C@H]1CC[C@H]2[C@@H]3CC[C@@H]4C[C@@](O)(C#Cc5cccs5)CC[C@]4(C)[C@H]3CC[C@]12C [3α-hydroxy-3β-(2'-thienyl)ethynyl-5β-pregnan-20-one] | 148 | 59 | 100 | 37.5 |  |
| C[C@]12CC[C@@H](O)C[C@H]1CC[C@@H]1[C@@H]2CC[C@]2(C)[C@@H](C(=O)Cn3nccn3)CC[C@@H]12 [3α-hydroxy-21-(2H-1,2,3-triazol-2-yl)-5β-pregnan-20-one] | 164 | 56 | 79 | 100 |  |
| C[C@H](O)[C@H]1CC[C@H]2[C@@H]3CC[C@@H]4C[C@H](O)CC[C@]4(C)[C@H]3CC[C@]12C [5β-pregnan-3α,20α-diol] |  |  |  |  | inhibition at 1 µM [3]: 0%; modulation of [35S]TBPS binding, in words ([5]; even at very high concentrations (Figure 6)): partially modulate; % of Inhibition [2]: 0% |
